Experimental data published in patent US12358863B2, “Nitrogen-containing derivative of substituted phenol hydroxy acid ester, and preparation and use thereof” (priority 2019, dated 2025).
Like-named read-outs stand apart in the source and are kept apart here.

What was measured:
[1] = Decomposition of prodrugs in mouse plasma in vitro (HPLC of released propofol or other substituted phenol); format: in vitro ADME; conditions: 37° C.
Experimental: The prodrug to be tested was prepared into a saline solution of 10 mg/mL. 10 μL of drug-containing solution was added to 990 μL of mouse plasma, vortexed for 30 s, and then incubated at 37° C. At 30 s, 1 min, 5 min, 10 min, 30 min, 60 min and 120 min, 50 μL of drug-containing plasma was collected, to which was immediately added 150 μL of acetonitrile to terminate the enzymatic reaction, and then centrifuged at 20000 rpm and 4° C. for 10 min. 50 μL of supernatant was taken out and injected into HPLC, to determine the concentration of propofol by internal standard method. The decomposition rate of the prodrug was calculated from the concentrations of propofol or other substituted phenols. Chromatographic conditions: Agilent Zorbax XdB C18 column (150 mm)×4.6 mm, 5 μm); column temperature 30° C.; the mobile phase, water:acetonitrile (40:60, v/v); fluorescence wavelength: excitation wavelength (Ex) at 276 nm, emission wavelength (EM) at 310 nm; flow rate: 1.2 mL/min; retention time: internal standard (thymol) 3.9 min, propofol 7.4 min. Linear range of propofol or other substituted phenols: 50-35000 ng/mL. Instruments: Waters 2695 high performance liquid chromatograph, Waters 2475 fluorescence detector.

[2] = system: Kunming mice; experiment: Determination of therapeutic index (ED50 and LD50, up-and-down method); format: in vivo, mouse; conditions: half male and half female
Experimental: Determination of therapeutic index (TI) of prodrug molecules: by referring the method in literature (Dixon, W. Staircase bioassay: the up-and-down method. Neurosci. Biobehav. Rev. 1991, 15, 47-50), the half-effective dose (ED50) and half-lethal dose (LD50) of the molecule to be tested were determined in Kunming mice (weighing 25-30 g, half male and half female). The therapeutic index for each molecule was calculated according to the equation: TI=LD50/ED50.

[3] = system: Kunming mice; format: in vivo, mouse
Experimental: For each drug, 10 male Kunming mice weighing 20-35 g were included, and the dose of each drug was 2×ED50 in mice. After the compound of the present invention and fospropofol were respectively dissolved in saline, the resultant solutions were injected via the mouse tail vein. For propofol, a glucose dilution (5 mg/mL) of a commercially available emulsion of diprivan was selected and injected via the mouse tail vein; while, for another substituted phenol molecule (CAS:1637741-58-2), its 30% fat emulsion was prepared as a medicated emulsion. The concentration of the injectable solution of the compound according to the present invention was 10-15 mg/mL, and the concentration of the injectable solution of fospropofol was 55 mg/mL, while the concentration of the injectable solution of another substituted phenol molecule (CAS:1637741-58-2) was 1 mg/mL. After injection of tested drug, the occurrence time T1 of righting reflex after its disappearance, the duration T2 for the disappearance of righting reflex (i.e. anesthesia time) and the time T3 required for the animal to recover completely after waking up were recorded. Complete recovery refers to the recovery of autonomous activities of animals to the level before administration. In the experiment, animals were not given respiratory support such as oxygen inhalation or intubation.

[4] = Table 3, dose 2×ED50, tail vein injection, male Kunming mice

## CC(C)c1cccc(C(C)C)c1OC(=O)COC(=O)CN1CCOCC1 [Compound 27]
[1]; 30 s
  Decomposition rates of prodrugs: 60%
[1]; 1 min
  Decomposition rates of prodrugs: 65%
[1]; 5 min
  Decomposition rates of prodrugs: 79%
[1]; 10 min
  Decomposition rates of prodrugs: 86%
[1]; 30 min
  Decomposition rates of prodrugs: 100%
[1]; 60 min
  Decomposition rates of prodrugs: 100%
[1]; 120 min
  Decomposition rates of prodrugs: 100%
[2]
  TI (therapeutic index): 4.5
[3]; [4]
  T1: the onset time after injection: Immediate
  T2: the duration of disappearance of righting reflex: 4 to 12 min
  T3: the time required for righting reflex to recover to autonomous activity: 1 to 2 min

## CC(C)c1cccc(C(C)C)c1OC(=O)COC(=O)CN1CCC1.Cl [Compound 37]
[1]; 30 s
  Decomposition rates of prodrugs: 75%
[1]; 1 min
  Decomposition rates of prodrugs: 92%
[1]; 5 min
  Decomposition rates of prodrugs: 100%
[1]; 10 min
  Decomposition rates of prodrugs: 100%
[1]; 30 min
  Decomposition rates of prodrugs: 100%
[1]; 60 min
  Decomposition rates of prodrugs: 100%
[1]; 120 min
  Decomposition rates of prodrugs: 100%
[2]
  TI (therapeutic index): 3.9
[3]; [4]
  T1: the onset time after injection: Immediate
  T2: the duration of disappearance of righting reflex: 4 to 10 min
  T3: the time required for righting reflex to recover to autonomous activity: 1 to 2 min

## CC(C)c1cccc(C(C)C)c1OC(=O)COC(=O)CN1CCCC1.Cl [Compound 42]
[1]; 30 s
  Decomposition rates of prodrugs: 91%
[1]; 1 min
  Decomposition rates of prodrugs: 100%
[1]; 5 min
  Decomposition rates of prodrugs: 100%
[1]; 10 min
  Decomposition rates of prodrugs: 100%
[1]; 30 min
  Decomposition rates of prodrugs: 100%
[1]; 60 min
  Decomposition rates of prodrugs: 100%
[1]; 120 min
  Decomposition rates of prodrugs: 100%
[2]
  TI (therapeutic index): 3.7
[3]; [4]
  T1: the onset time after injection: Immediate
  T2: the duration of disappearance of righting reflex: 6 to 12 min
  T3: the time required for righting reflex to recover to autonomous activity: 1 to 2 min

## CC(C)c1cccc(C(C)C)c1OC(=O)COC(=O)CN1CCOCC1 [Compound 22]
[1]; 30 s
  Decomposition rates of prodrugs: 58%
[1]; 1 min
  Decomposition rates of prodrugs: 66%
[1]; 5 min
  Decomposition rates of prodrugs: 80%
[1]; 10 min
  Decomposition rates of prodrugs: 89%
[1]; 30 min
  Decomposition rates of prodrugs: 100%
[1]; 60 min
  Decomposition rates of prodrugs: 100%
[1]; 120 min
  Decomposition rates of prodrugs: 100%
[2]
  TI (therapeutic index): 4.7
[3]; [4]
  T3: the time required for righting reflex to recover to autonomous activity: 1 to 2 min
[3]; mouse, in vivo
  T1: the onset time after injection: Immediate
  T2: the duration of disappearance of righting reflex: 4.5 to 10.5 min
